Experimental data as given in paper PMC10151334, “Anti-proliferative potential and oxidative reactivity of thermo-oxidative degradation products of stigmasterol and stigmasteryl esters for human intestinal cells” (Scientific Reports, 2023).

Tests used:
S. typhimurium TA102 = test: Bacterial reverse mutation assay (Ames test), strain TA102; settings: 40 μg/mL, regardless of metabolic activation (+/− S9)
Method: (§1) Potential mutagenicity or pro-mutagenicity of non-heated and heated ST, ST-LA, and ST-OA was determined using the bacterial reverse mutation assay (Ames test) with Salmonella enterica subsp. enterica ser. typhimurium tester strains TA98, TA100, and TA102, which were obtained from the Polish Collection of Microorganisms of the Institute of Immunology and Experimental Therapy of the Polish Academy of Sciences in Wroclaw.
(§2) Mutagenicity experiments were performed in the liquid pre-incubation assay, without and with metabolic activation by supplying Aroclor 1254-induced rat liver microsomal fraction (S9, Sigma-Aldrich) with NADP and cofactors for NADPH-supported oxidation, according to the procedure described by Mortelmans and Zeiger[39]. Briefly, reaction mixtures, consisting of 12-h bacterial culture, non-heated and heated compound (ST, ST-LA, ST-OA) at a concentration of 40 μg, 0.2 M phosphate buffer (pH 7.4), and alternatively S9 activating mixture, were pre-incubated at 37 °C for 20 min. […] The mutagen, 2-aminoanthracene (5 μg) (Sigma-Aldrich), was a positive control in pro-mutagenicity experiments. After pre-incubation, the reaction mixtures were added to the top agar supplemented with traces of histidine and biotin and poured onto the plates covered with minimum glucose agar. The cultures were incubated for 48 h at 37 °C, and the number of revertants (His+) colonies was counted manually.
(§3) Compounds with MI ≥ 2 can be recognized as potentially mutagenic.

CCD 841 CoN cells [1] = test: DNA synthesis, BrdU incorporation (Cell Proliferation ELISA); format: cell-based, human; settings: 48 h
Method: CCD 841 CoN cells were grown in black 96-well plates at an initial cell density of 2 × 10^4 cells/cm^2 for 24 h under standard culture conditions. The cells were treated with ST (2.5, 5, 10, 20, and 40 μg/mL) and its esters ST-OA and ST-LA (10, 20, and 40 μg/mL) for 48 h. DNA synthesis was measured by incorporating thymidine analog 5-bromo-2′-deoxyuridine (BrdU) into newly synthesized DNA using the Cell Proliferation ELISA kit according to the protocol recommended by the manufacturer (Roche Diagnostics GmbH, Mannheim, Germany). Briefly, BrdU was added to the treated cells 24 h before the end of the exposure to the ST, ST-OA, and ST-LA (final BrdU concentration of 10 μM). After treatment, BrdU-labeled DNA was denatured (30 min, 20 °C). Then, BrdU was bonded with a peroxidase-conjugated anti-BrdU antibody (90 min, 20 °C) and reacted with the peroxidase substrate. The absorbance measurement was done with a stop solution (1 M H2SO4) at 450 nm with reference wavelength 690 nm using a Tecan M200 Infinite microplate reader.

[2] = parameters: method as in PMID 31883991; settings: thermo-oxidative treatment; cited from earlier work
[3] = Thermo-oxidative treatment at 180 °C for 8 h, degradation of the compound; format: physicochemical; settings: heated at 180 °C for 8 h under oxygen atmosphere
Method: ST, ST-OA, and ST-LA (50 mg each) were placed separately in glass vials and heated at 180 °C for 8 h under an oxygen atmosphere. After thermo-oxidative treatment, the tested compounds were stored at − 20 °C until chemical and biological analyses. The non-heated and heated ST and its esters were analyzed to detect degradation products and oxyderivatives. Analytical methods were described in the article published previously.

S. typhimurium TA98 = test: Bacterial reverse mutation assay (Ames test), strain TA98; settings: 40 μg/mL, with microsomal fraction (+ S9)
Method: as §1, §2, §3

CCD 841 CoN cells [4] = test: MultiTox-Fluor Multiplex Cytotoxicity Assay (live and dead cell fluorescence); format: cell-based
Method: The normal human diploid CCD 841 CoN cell line (ATCC® CRL-1790™) isolated from colon mucosa was obtained from American Type Culture Collection (ATCC, Manassas, VA, USA). Cells were cultured in Dulbecco’s Modified Eagle’s Medium (DMEM, Sigma-Aldrich) supplemented with fetal bovine serum (FBS; Gibco BRL, Grand Island, NY, USA) to a final concentration of 10% and maintained at 37 °C in a humidified atmosphere with 5% CO2.
In the cytotoxicity experiments, CCD 841 CoN cells were seeded in 96-well plates at an initial density of 2.0 × 10^4 cells/cm^2 and incubated for 24 h. […] Control culture contained the vehicle at the amount corresponding to the sample analyzed.
The Multitox-Fluor Multiplex Cytotoxicity Assay (Promega GmbH, Mannheim, Germany) was applied to determine the relative number of live and dead cells in the CCD 841 CoN cell cultures treated with the analyzed compounds. The assay determined live- and dead-cell protease activities using two fluorogenic peptide substrates, cell-permeant (glycyl-phenylalanyl-amino fluorocoumarin; GF-AFC) and cell-impermeant (bis-alanyl-alanyl-phenylalanyl-rhodamine 110; bis-AAF-R110). After treatment, the cells were incubated with GF-AFC and bis-AAF-R110 substrates for 60 min at 37 °C. The live- and dead-cell proteases produced AFC and R110 products, measured using a Tecan M200 Infinite microplate reader (Tecan Group Ltd., Männedorf, Switzerland) at different excitation (400 nm and 485 nm) and emission (505 nm and 520 nm) spectra. The assay was conducted according to the manufacturer’s instructions.

[5] = system: caspase 3/7 activity in CCD 841 CoN cells; test: Caspase 3/7 activity assay (APO-One Homogeneous); format: cell-based, human; settings: 40 μg/mL, 24 h
Method: CCD 841 CoN cells were grown in black 96-well plates at an initial cell density of 2 × 10^4 cells/cm^2 for 24 h under standard culture conditions. The cell cultures were treated for 24 h with ST, ST-OA, and ST-LA at a 40 μg/mL dose. After treatment, caspase-3/7 activity was determined using the APO-One Homogeneous Caspase-3/7 Assay (Promega Corporation, Wisconsin, USA), which is based on the proteolytic cleavage of C-terminal side of aspartate residue in the DEVD peptide substrate by caspase 3/7 into fluorescent rhodamine 110 (R110). Analysis of caspase 3/7 activity was carried out following the manufacturer's instructions. Briefly, the cells after the treatment were incubated at room temperature with Apo-ONE® Caspase-3/7 Reagent—bifunctional cell lysis/caspase activity buffer combined with the pro-fluorescent caspase-3/7 substrate Z-DEVD-R110. After 4-h incubation, fluorescence was measured at an excitation wavelength of 485 nm and an emission wavelength of 530 nm using a Tecan M200 Infinite microplate reader. Data obtained were normalized to cellular protein content, quantified by BCA assay (Pierce® BCA Protein Assay Kit, Thermo Scientific Inc., USA) according to the manufacturer's protocol.

Structure (SMILES): CC[C@H](/C=C/[C@@H](C)[C@H]1CC[C@H]2[C@@H]3CC=C4C[C@@H](O)CC[C@]4(C)[C@H]3CC[C@]12C)C(C)C [ST, Stigmasterol]
- effect on TA102 revertants (S. typhimurium TA102): did not affect the number of TA102 revertants
- decrease in DNA synthesis (BrdU incorporation) (CCD 841 CoN cells [1]; 5 μg/mL, P = 0.028): 10%
- decrease in DNA synthesis (BrdU incorporation) (CCD 841 CoN cells [1]; 40 μg/mL): 61%
- first dose that significantly inhibited DNA synthesis (CCD 841 CoN cells [1]): 5 µg/mL
- degradation of ST molecule due to the heating process [2]: approximately 80%
- Sterol moiety depletion (%) [3]: 80.4 ± 13.5%
- increase in number of revertant colonies TA98 (S. typhimurium TA98): 1.6 fold
- decrease in the viable cell number (CCD 841 CoN cells [4]; 1 μg/mL, first cytotoxic effects): 10%
- reduction in number of viable cells / relative cell viability (CCD 841 CoN cells [4]; 40 μg/mL, 48-h treatment): approximately 80%
- concentration at which first cytotoxic effects were observed (CCD 841 CoN cells [4]; 48-h treatment): 1000 ng/mL
- caspase 3/7 activity [5]: Boosted caspase 3/7 activity
